Results from patent US5066783A, “Antiviral peptides and means for treating herpes infections” (priority 1988, dated 1991).
Where a SMILES comes first, the peptide text is derived from it. Bridges are numbered along the chain shown (N, C = ends). [ ]: non-standard residue; d: D form. The star is where a group is joined. Ileψ(thiazoline)Cys = CC[C@H](C)[C@H](N)C1=N[C@H](C(=O)*)CS1; dOrn = NCCC[C@@H](N)C(=O)O

Experiments:
HSV-2 strain HG-52 = assay: Guinea pig cutaneous herpes infection model, HSV-2; format: in vivo; conditions: for skin lesion score: HSV-2 group, mean score
HSV-1 strain MP-12 = assay: Guinea pig cutaneous herpes infection model, HSV-1; format: in vivo; conditions: for skin lesion score: HSV-1 group, mean score
HSV-2 = HSV-2 replication (virus yield) in serum-starved BHK 21/C13 cells; format: cell-based; conditions: 1 mM
HSV-1 = conditions: A. Alarcon et al., Antiviral Research, 4, 231 (1984); cited from earlier work
[1] = test system: HSV-1 ribonucleotide reductase; assay: Neutralization of HSV-1 ribonucleotide reductase by anti-nonapeptide IgG, preadsorbed with nonapeptide; conditions: FIG. 2
[2] = target: HSV-2 ribonucleotide reductase (Human herpesvirus 2, UniProt P89462); assay: HSV-2 ribonucleotide reductase inhibition; format: biochemical; conditions: data not shown
Description: The precipitate was removed by centrifugation.

[3] = target: ribonucleotide reductase from HSV-1 (strain F)-infected BHK-21/C13 cells (Human herpesvirus 1, UniProt P08543); assay: HSV-1 ribonucleotide reductase (CDP reductase) inhibition; conditions: for % CDP REDUCTASE ACTIVITY: 75 μg protein extract
[4] = test system: cellular ribonucleotide reductase from BHK21/C13 cells; conditions: up to 1 mM; data not shown
[5] = test system: cellular ribonucleotide reductase from 96-V-2(600) cells; conditions: up to 1 mM; FIG. 1
[6] = target: T1, herpes simplex viral ribonucleotide reductase (Human herpesvirus 1, UniProt P08543); assay: biochemical; format: biochemical, herpes simplex virus
T1 construct: endogenous in cells

[7] = 4 hours post infection, A (after absorption)
[8] = 4 hours post infection, B (before absorption)
[9] = 12 hours post infection, A (after absorption)
[10] = 12 hours post infection, B (before absorption)
[11] = 24 hours post infection, A (after absorption)
[12] = 24 hours post infection, B (before absorption)
[13] = 36 hours post infection, A (after absorption)
[14] = 36 hours post infection, B (before absorption)

Sequence of ribonucleotide reductase from HSV-1 (strain F)-infected BHK-21/C13 cells (P08543 whole entry): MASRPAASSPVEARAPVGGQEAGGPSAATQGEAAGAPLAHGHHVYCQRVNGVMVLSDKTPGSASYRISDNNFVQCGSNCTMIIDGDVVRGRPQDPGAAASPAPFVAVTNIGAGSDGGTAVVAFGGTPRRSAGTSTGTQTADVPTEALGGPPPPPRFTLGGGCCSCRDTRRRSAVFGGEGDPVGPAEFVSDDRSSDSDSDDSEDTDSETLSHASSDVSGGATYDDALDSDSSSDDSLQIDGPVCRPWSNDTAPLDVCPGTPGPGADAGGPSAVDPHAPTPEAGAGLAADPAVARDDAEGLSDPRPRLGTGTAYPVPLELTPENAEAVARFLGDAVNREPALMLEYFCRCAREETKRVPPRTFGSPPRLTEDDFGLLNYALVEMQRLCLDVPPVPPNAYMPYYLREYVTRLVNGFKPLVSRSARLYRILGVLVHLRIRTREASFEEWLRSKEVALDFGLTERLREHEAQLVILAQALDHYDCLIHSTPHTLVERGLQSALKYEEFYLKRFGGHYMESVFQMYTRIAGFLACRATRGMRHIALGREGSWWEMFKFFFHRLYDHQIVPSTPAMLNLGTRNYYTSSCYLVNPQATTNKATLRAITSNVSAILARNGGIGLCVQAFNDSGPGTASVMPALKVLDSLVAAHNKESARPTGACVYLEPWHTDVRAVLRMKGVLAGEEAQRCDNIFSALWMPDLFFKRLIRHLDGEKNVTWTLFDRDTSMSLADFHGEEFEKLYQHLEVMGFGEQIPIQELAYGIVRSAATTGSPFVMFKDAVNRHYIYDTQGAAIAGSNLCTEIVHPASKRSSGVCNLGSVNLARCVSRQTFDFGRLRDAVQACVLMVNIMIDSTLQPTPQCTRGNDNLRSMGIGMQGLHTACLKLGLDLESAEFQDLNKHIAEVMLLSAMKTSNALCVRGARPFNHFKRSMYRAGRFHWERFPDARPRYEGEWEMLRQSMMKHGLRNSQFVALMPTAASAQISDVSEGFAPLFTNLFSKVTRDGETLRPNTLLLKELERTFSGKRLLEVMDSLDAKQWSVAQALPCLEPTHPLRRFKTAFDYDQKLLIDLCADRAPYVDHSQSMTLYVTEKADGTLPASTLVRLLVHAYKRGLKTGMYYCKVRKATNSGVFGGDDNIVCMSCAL
Sequence of HSV-2 ribonucleotide reductase (P89462 whole entry): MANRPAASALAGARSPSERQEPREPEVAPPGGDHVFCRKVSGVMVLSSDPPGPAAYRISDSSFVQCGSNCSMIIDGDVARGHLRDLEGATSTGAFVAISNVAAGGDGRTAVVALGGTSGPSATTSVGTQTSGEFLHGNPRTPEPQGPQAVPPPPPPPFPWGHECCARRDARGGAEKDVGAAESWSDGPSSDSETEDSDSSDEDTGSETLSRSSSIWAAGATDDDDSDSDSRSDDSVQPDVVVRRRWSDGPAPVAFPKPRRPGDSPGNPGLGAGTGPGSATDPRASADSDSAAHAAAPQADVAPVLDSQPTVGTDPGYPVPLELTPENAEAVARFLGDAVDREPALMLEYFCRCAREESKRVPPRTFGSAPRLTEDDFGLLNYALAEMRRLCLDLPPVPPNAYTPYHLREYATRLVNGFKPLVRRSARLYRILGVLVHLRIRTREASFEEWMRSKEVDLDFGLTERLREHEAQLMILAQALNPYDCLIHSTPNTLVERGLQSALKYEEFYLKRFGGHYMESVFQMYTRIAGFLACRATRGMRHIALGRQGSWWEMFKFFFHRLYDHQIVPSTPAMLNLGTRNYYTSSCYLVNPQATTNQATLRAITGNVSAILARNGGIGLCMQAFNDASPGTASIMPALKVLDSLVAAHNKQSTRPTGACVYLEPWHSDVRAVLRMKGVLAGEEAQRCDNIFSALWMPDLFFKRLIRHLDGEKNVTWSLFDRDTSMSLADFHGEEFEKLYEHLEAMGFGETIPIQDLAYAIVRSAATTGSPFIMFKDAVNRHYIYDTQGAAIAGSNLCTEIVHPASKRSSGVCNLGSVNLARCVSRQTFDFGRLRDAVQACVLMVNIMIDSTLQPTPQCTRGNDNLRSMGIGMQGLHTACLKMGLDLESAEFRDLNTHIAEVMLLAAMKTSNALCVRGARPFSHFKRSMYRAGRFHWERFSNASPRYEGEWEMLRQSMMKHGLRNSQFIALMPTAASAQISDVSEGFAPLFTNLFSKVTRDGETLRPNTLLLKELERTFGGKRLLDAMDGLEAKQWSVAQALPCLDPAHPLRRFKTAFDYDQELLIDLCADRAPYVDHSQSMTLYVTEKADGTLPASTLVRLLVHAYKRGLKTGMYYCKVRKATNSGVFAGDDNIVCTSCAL
T1 sequence (P08543 whole entry): as the sequence (P08543 whole entry) above

With `Nc1nc2c(ncn2COCCO)c(=O)[nH]1` [Acyclovir, acyclovir] the skin lesion score (HSV-2 strain HG-52; day 1, topical twice daily) was 0.50, the skin lesion score (HSV-2 strain HG-52; day 2, topical twice daily) was 0.50 and the skin lesion score (HSV-2 strain HG-52; day 3, topical twice daily) was 0.63. The skin lesion score (HSV-2 strain HG-52; day 4, topical twice daily) was 0.67, the skin lesion score (HSV-2 strain HG-52; day 5, topical twice daily) was 1.23 and the skin lesion score (HSV-2 strain HG-52; day 6, topical twice daily) was 0.57. For the same compound, the skin lesion score (HSV-2 strain HG-52; day 7, topical twice daily) was 0.40, the skin lesion score (HSV-2 strain HG-52; day 8, topical twice daily) was 0.13 and the skin lesion score (HSV-2 strain HG-52; day 9, topical twice daily) was 0.13. The skin lesion score (HSV-2 strain HG-52; day 10, topical twice daily) was 0.00, the skin lesion score (HSV-2 strain HG-52; day 11, topical twice daily) was 0.00 and the skin lesion score (HSV-1 strain MP-12; day 1, topical twice daily) was 0.50. For the same compound, the skin lesion score (HSV-1 strain MP-12; day 2, topical twice daily) was 0.50, the skin lesion score (HSV-1 strain MP-12; day 3, topical twice daily) was 0.28 and the skin lesion score (HSV-1 strain MP-12; day 4, topical twice daily) was 0.20. For the same compound, the skin lesion score (HSV-1 strain MP-12; day 5, topical twice daily) was 0.20, the skin lesion score (HSV-1 strain MP-12; day 6, topical twice daily) was 0.20 and the skin lesion score (HSV-1 strain MP-12; day 7, topical twice daily) was 0.15. The skin lesion score (HSV-1 strain MP-12; day 8, topical twice daily) was 0.00, the skin lesion score (HSV-1 strain MP-12; day 9, topical twice daily) was 0.00 and the skin lesion score (HSV-1 strain MP-12; day 10, topical twice daily) was 0.00. The skin lesion score (HSV-1 strain MP-12; day 11, topical twice daily) was 0.00.

With `CC[C@H](C)[C@H](N)C1=N[C@H](C(=O)N[C@@H](CC(C)C)C(=O)N[C@H](CCC(=O)O)C(=O)N[C@H](C(=O)N[C@H]2CCCCNC(=O)[C@H](CC(N)=O)NC(=O)[C@@H](CC(=O)O)NC(=O)[C@H](Cc3cnc[nH]3)NC(=O)[C@@H](Cc3ccccc3)NC(=O)[C@H]([C@@H](C)CC)NC(=O)[C@@H](CCCN)NC2=O)[C@@H](C)CC)CS1` [Bacitracin, bacitracin, reference compound] ({Ileψ(thiazoline)Cys}-L[dE]IK[dOrn]I[dF]H[dD]N; lactam 4-C) the virus titer (HSV-2; [7]) was 0.0005 PFU/cell, the virus titer (HSV-2; [8]) was 0.0007 PFU/cell and the virus titer (HSV-2; [9]) was 0.007 PFU/cell. The virus titer (HSV-2; [10]) was 0.005 PFU/cell, the virus titer (HSV-2; [11]) was 0.06 PFU/cell and the virus titer (HSV-2; [12]) was 0.06 PFU/cell. The virus titer (HSV-2; [13]) was 0.06 PFU/cell, the virus titer (HSV-2; [14]) was 0.03 PFU/cell and the “activity against HSV-1 when used alone” value (HSV-1) was “inactive”.

For `CC(C)C[C@H](NC(=O)[C@H](CC(=O)O)NC(=O)[C@H](CC(N)=O)NC(=O)[C@@H](NC(=O)[C@@H](NC(=O)[C@H](C)NC(=O)CNC(=O)[C@H](C)NC(=O)[C@@H](N)Cc1ccc(O)cc1)C(C)C)C(C)C)C(=O)O` [HSV 7-15, L-tyrosyl-L-alanyl-glycyl-L-alanyl-L-valyl-L-valyl-L-asparagyl-L-aspartyl- L-leucine], the “nonapeptide concentration at which equivalence was reached (IgG neutralizing capacity eliminated)” value [1] was 10 µM, the “inhibition curve for the HSV-2 enzyme compared with HSV-1” value [2] was “nearly identical” and the “% CDP REDUCTASE ACTIVITY” value ([3]; 10 μM peptide) was 96%. For the same compound, the “% CDP REDUCTASE ACTIVITY” value ([3]; 25 μM peptide) was 94%, the “% CDP REDUCTASE ACTIVITY” value ([3]; 50 μM peptide) was 80% and the “% CDP REDUCTASE ACTIVITY” value ([3]; 100 μM peptide) was 45%. The “% CDP REDUCTASE ACTIVITY” value ([3]; 400 μM peptide) was 9%, the “concentration giving total inhibition” value ([3]; FIG. 1, 50 μg viral enzyme) was 400 µM and the “shortening healing time and alleviating the symptoms of HSV-2” value (HSV-2 strain HG-52; summary of TABLE IV) was “effective”. For the same compound, the “sensitivity of cellular enzyme to the peptide” value [4] was “completely insensitive”, the “sensitivity of cellular enzyme to the peptide” value [5] was “completely insensitive” and the “shortening the healing time and diminishing the symptoms of HSV-1 infection” value (HSV-1 strain MP-12; summary of TABLE III) was “effective”. The virus titer (HSV-2; [7]) was 0.001 PFU/cell, the virus titer (HSV-2; [8]) was 0.0006 PFU/cell and the virus titer (HSV-2; [9]) was 0.01 PFU/cell. It also gave a virus titer (HSV-2; [10]) of 0.006 PFU/cell, a virus titer (HSV-2; [11]) of 0.5 PFU/cell and a virus titer (HSV-2; [12]) of 0.4 PFU/cell. The virus titer (HSV-2; [13]) was 1.1 PFU/cell and the virus titer (HSV-2; [14]) was 0.8 PFU/cell.

For H-STSYAGAVVNDL-OH [HSV 4-15], the “% CDP REDUCTASE ACTIVITY” value ([3]; 10 μM peptide) was 87%, the “% CDP REDUCTASE ACTIVITY” value ([3]; 25 μM peptide) was 71% and the “% CDP REDUCTASE ACTIVITY” value ([3]; 50 μM peptide) was 47%. For the same compound, the “% CDP REDUCTASE ACTIVITY” value ([3]; 100 μM peptide) was 18% and the “% CDP REDUCTASE ACTIVITY” value ([3]; 400 μM peptide) was 11%.

For H-YTMLVVDDL-OH [EBV 7-15], the “% CDP REDUCTASE ACTIVITY” value ([3]; 10 μM peptide) was 100%, the “% CDP REDUCTASE ACTIVITY” value ([3]; 25 μM peptide) was 100% and the “% CDP REDUCTASE ACTIVITY” value ([3]; 50 μM peptide) was 100%. For the same compound, the “% CDP REDUCTASE ACTIVITY” value ([3]; 100 μM peptide) was 70% and the “% CDP REDUCTASE ACTIVITY” value ([3]; 400 μM peptide) was 10%.

“H-YVVNDL-OH [H--Tyr--Val--Val--Asn--Asp--Leu--OH]” gave an IC50 [6] of 81 µM.
